From patent publication US10654819B2, “Processes for the preparation of 2,5-furandicarboxylic acid and intermediates and derivatives thereof” (Stora Enso Oyj, priority 2016, dated 2020)

Experiments:
[1] = FDCA solubility studies in various solvent compositions, visual inspection of dissolution (Example 23); assay type: physicochemical
Description: A series of samples containing various amounts of FDCA and mixed solvent compositions were prepared in sealed pressure ampules (typically containing 2-5 g material (FDCA and solvent composition)). For example, 200 mg FDCA, 900 mg NMP, and 900 mg de-ionized water were added to an 8 mL glass vial with a stir bar inside, corresponding to a mixture containing 10 wt % FDCA. Other samples corresponding to different wt % FDCA samples in various mixed solvent compositions were prepared in a similar manner. […] The reported FDCA solubility in Table 11 represents the maximum wt % FDCA that can be dissolved in the given solvent composition using this testing method.

[2] = FDCA solubility characterization in candidate solvents (Example 1); assay type: physicochemical
Description: Solvents were screened for the ability to dissolve FDCA. 10 ml of a candidate solvent was heated to a certain temperature and FDCA (Product No. F0710, TCI America) was added by small portions to the heated candidate solvent until the FDCA amount exceeded the solubility limit. After that, small volumes of solvent were added until the excess solids were completely dissolved. The experiment was repeated two times at each temperature and the average was taken as FDCA solubility. Five solvents were tested: (1) deionized water; (2) diglyme; (3) dioxane; (4) a 1:1 by volume mixture of diglyme with deionized water; and (5) a 4:1 by volume mixture of dioxane with deionized water. The results are depicted in FIG. 3 as a plot of FDCA Solubility (Weight %) as a function of temperature (° C.). […] However, when each of the organic solvents was combined with water, the resulting co-solvent appeared to provide a synergistic enhancement in FDCA solubilizing capability. […] Similarly, at 100° C., although FDCA solubility in water and dioxane individually was less than 1% (by weight) and less than 2% (by weight), respectively, the FDCA solubility trend line for the co-solvent system of 1:4 ratio of deionized water:dioxane, by volume, indicates 9% (by weight) FDCA solubility.

## O=C(O)c1ccc(C(=O)O)o1 [FDCA, 2,5-furandicarboxylic acid]
[1]; Bu^tOH 50 wt. % / H2O 50 wt. %, 100 ° C.
  FDCA solubility: 7.0 wt. %
[1]; Bu^tOH 75 wt. % / H2O 25 wt. %, 100 ° C.
  FDCA solubility: 7.5 wt. %
[1]; MEK 25 wt. % / H2O 75 wt. %, 100 ° C.
  FDCA solubility: 5.5 wt. %
[1]; MEK 90 wt. % / H2O 10 wt. %, 100 ° C.
  FDCA solubility: 4.0 wt. %
[1]; NMP 20 wt. % / H2O 80 wt. %, 23 ° C.
  FDCA solubility: 0.3 wt. %
[1]; NMP 20 wt. % / H2O 80 wt. %, 100 ° C.
  FDCA solubility: 4.0 wt. %
[1]; NMP 20 wt. % / H2O 80 wt. %, 120 ° C.
  FDCA solubility: 7.5 wt. %
[1]; NMP 35 wt. % / H2O 65 wt. %, 23 ° C.
  FDCA solubility: 0.5 wt. %
[1]; NMP 35 wt. % / H2O 65 wt. %, 100 ° C.
  FDCA solubility: 9.0 wt. %
[1]; NMP 35 wt. % / H2O 65 wt. %, 120 ° C.
  FDCA solubility: 13.5 wt. %
[1]; NMP 50 wt. % / H2O 50 wt. %, 100 ° C.
  FDCA solubility: 14.5 wt. %
[1]; NMP 50 wt. % / H2O 50 wt. %, 120 ° C.
  FDCA solubility: 19.5 wt. %
[1]; gamma-valerolactone 25 wt. % / H2O 75 wt. %, 100 ° C.
  FDCA solubility: 4.0 wt. %
[1]; gamma-valerolactone 50 wt. % / H2O 50 wt. %, 100 ° C.
  FDCA solubility: 7.0 wt. %
[1]; gamma-valerolactone 75 wt. % / H2O 25 wt. %, 100 ° C.
  FDCA solubility: 6.5 wt. %
[2]; in 1:1 deionized water:diglyme by volume, 100° C.
  FDCA solubility: 9 % (by weight)
[2]; in 1:4 deionized water:dioxane by volume, 100° C., from trend line
  FDCA solubility: 9 % (by weight)
[2]; in diglyme, 22° C. to 100° C.
  FDCA solubility: less than 2 % by weight
[2]; in diglyme, 100° C.
  FDCA solubility: less than 2 % (by weight)
[2]; in dioxane, 22° C. to 100° C.
  FDCA solubility: less than 2 % by weight
[2]; in dioxane, 100° C.
  FDCA solubility: less than 2 % (by weight)
[2]; in water, 22° C. to 140° C.
  FDCA solubility: less than 2 % by weight
[2]; in water, 100° C.
  FDCA solubility: less than 1 % (by weight)
